US6664271B1, “Immunopotentiator agents” (Eli Lilly and Company, priority 1999, dated 2003)
Marks after values point to notes of the source that are not given here.

How the values were obtained:
E. coli 19B = test: bacterial clearance of E. coli from peripheral blood of neonatal chicks (Example 77); format: in vivo, chick; conditions: single subcutaneous injection of 25 μg, E. coli challenge, blood 14-18 hours post-challenge
Procedure: The compounds of Example 15 ((S)-ethyl 1-benzoyl-3-piperidinecarboxylate), Example 29 (1-benzoyl-3-butyrylpiperidine), Example 30 ((S)-ethyl 1-(2-thiopheneacetyl)-3-piperidinecarboxylate) and Example 68 ((S)-ethyl 1-benzyl-3-piperidinecarboxylate 1-methiodide), respectively, were tested to determine whether a single subcutaneous injection enhanced the bacterial clearance of E. coli from the peripheral blood of neonatal chicks. Bacterial clearance is a measurement of cell-mediated immunity, specifically, phagocyte function, in animals. An approved Animal Care and Use Committee protocol governed the activity in this experiment.
1 ml syringes with 21 g 1″ needles (Becton Dickinson and Company Franklin Lakes, N.J. 07417-1884); 1 ml syringe with 25 g ⅝″ needles (Becton Dickinson and Company Franklin Lakes, N.J. 07417-1884); EMB agar plates (Difco Laboratories, Becton Dickinson Microbiology Systems, Sparks, Md. 21152); Culture tubes (14 ml polystyrene round bottom, Becton Dickinson Labware, Franklin Lakes, N.J. 07417-1886); Dulbecco's Phosphate Buffered Saline w/o Mg^++ or Ca^++ (Gibco BRL, Life Technologies Rockville, Md. 20850). Peterson x Hubbard male chicks (day of hatch from a commercial hatchery) were utilized
160 chicks were divided into 6 groups: Group 1=Controls (acetate-buffered saline vehicle); Group 2=Compound of Example 15 ((S)-ethyl 1-benzoyl-3-piperidinecarboxylate); Group 3=Compound of Example 29 (1-benzoyl-3-butyrylpiperidine); Group 4=Compound of Example 30 ((S)-ethyl 1-(2-thiopheneacetyl)-3-piperidinecarboxylate); Group 5=Compound of Example 68 ((S)-ethyl 1-benzyl-3-piperidinecarboxylate 1-methiodide); and Group 6=environmental controls. Groups 1-5 contained 3 replicates of 10 chicks each and Group 6 contained 1 replicate of 10 chicks.
Day −2 Upon arrival, day of hatch chicks were randomized (10/group), and placed in a Petersime heated brooder battery unit (Petersime Incubator Company, Gettysburg, Ohio 45328). […] All chicks were given ad libitum access to a commercially available starter feed and water.
Day 0 11:00 AM. Five to ten colonies of E. coli 19B were selected from a fresh overnight blood agar plate (TSA II with 5% sheep blood, Becton Dickinson Microbiology Systems Cockeysville, Md. 21030) and placed into 100 ml Brain Heart Infusion broth (Difco Laboratories, Becton Dickinson Microbiology Systems Sparks, Md. 21152) in a flask. […]
Day 5 EMB plates were removed from the incubator and bacterial colonies were counted and recorded to calculate CFU/ml/chick.
Data was transformed to logio values, and analysis of variance was used to determine significant differences between the treatment groups and controls. Data was expressed as the percentage of enhancedbacterial clearance compared to E. coli-challenged controls. […]

chicken leukocytes = test: cells; format: cell-based
How it was run: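 Leukocytes came from EDTA-anticoagulated cardiac blood of 3-6 week old broiler chickens. They were isolated by methylcellulose sedimentation and differential centrifugation, washed in PBS with 50 μg/ml gentamicin, and resuspended in supplemented RPMI 1640. Viable cells were counted by Trypan Blue exclusion.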

In the case of CCOC(=O)[C@H]1CCCN(C(=O)Cc2cccs2)C1 [Example 30, (S)-Ethyl 1-(2-Thiopheneacetyl)-3-piperidinecarboxylate], the “% Enhanced Clearance Compared to Controls” value (E. coli 19B) is reported as 61* %, the minimal effective concentration (chicken leukocytes; Gallus gallus, Leukocyte, chicken leukocytes, read at 72 hours, read-out: MSC (Minimum Stimulatory Concentration)) is reported as 0.1 µg/mL and the “MTC (Maximum Tolerable Concentration prior to causing cytotoxicity)” value (chicken leukocytes; Hubbard/Peterson broiler, chicken, 72 h) is reported as 10 µg/mL.
